Measured values published in patent publication US20210115397A1, “METHOD FOR PROMOTING DIFFERENTIATION OF PLURIPOTENT STEM CELLS” (TOKYO INSTITUTE OF TECHNOLOGY, priority 2018, published 2021).

System: RPChiPS771 hiPSCs
Test: Differentiation of RPChiPS771 into definitive endoderm with or without CHIR99021, SOX17+ cells
Assay type: cell-based, human
Conditions: protocol B (CHIR99021 added) versus protocol A (without CHIR99021)
Experimental: Medium 1 (M1): Initiation of differentiation was done by replacing the culture with Medium 1, including DMEM with 4, 500 mg/L glucose supplemented with 3 μM CHIR99021 (Stemgent), 100 ng/mL recombinant human activin-A (Cell Guidance Systems Ltd), and 2% B27 insulin (+) supplement (Life Technologies). On days 1 and 2, the media were replaced with medium 1 without CHIR99021. Cells were fixed in 4% paraformaldehyde (NACALAI TESQUE, INC.) in PBS, permeabilized with 0.1% Triton X-100 (NACALAI TESQUE, INC.), and were then blocked with 20% Blocking One (NACALAI TESQUE, INC., Japan) in PBST (0.1% Tween-20 in PBS). Antibodies were diluted in 20% Blocking One (NACALAI TESQUE, INC., Japan) in PBST (0.1% Tween-20 in PBS). Cells were counterstained with […] (DAPI) (Roche Diagnostics K.K., Switzerland). The following primary antibodies were used: mouse anti-Oct3/4 (Santa Cruz Biotechnology, Inc.), goat anti-Sox17 (R&D Systems, Inc.), goat anti-PDX1 (R&D Systems, Inc.), guinea pig anti-insulin (Dako), rabbit anti-C-peptide (Cell Signaling Technology, Inc.), and mouse anti-Nkx6.1 (Developmental Studies Hybridoma Bank). […] Positive cells versus total cells (DAPI-positive cells) were quantified using ImageXpress Micro cellular imaging system (Molecular Devices, LLC.).

Cc1c[nH]c(-c2cnc(NCCNc3ccc(C#N)cn3)nc2-c2ccc(Cl)cc2Cl)n1 [CHIR99021, 6-[[2-[[4-(2,4-dichlorophenyl)-5-(4-methyl-1H-imidazole-2-yl)-2-pyrimidinyl]amino]ethyl]amino]nicotinonitrile]
proportion of SOX17+ cells: a higher proportion of SOX17+ cells overall
